Laboratory results reported in the COVID Moonshot data (paper PMC7615835).
Where “and” joins values, the source holds several entries; their conditions need not be identical. Equal values may be shown once.

What follows are compounds tested against SARS-CoV-2 Main Protease (SARS-CoV-2) (UniProt P0DTD1).
`COc1cccc2ncc(NC(=O)Cc3cccc(Cl)c3)n12` was tested, and the IC50 was > 99.5 µM. `O=C(CN(C(=O)Cc1cccnc1)c1ccc(-c2ncccn2)cc1)N1CCNCC1` was tested, and the IC50 was > 99.5 µM. `O=C(Cc1cc(Cl)cc(Nc2c(Cl)cccc2[N+](=O)[O-])c1)Nc1cncc2ccccc12` showed an IC50 of 2.37 µM. With `CC(C)(C)c1ccc(N(C(=O)c2ccnc(N3CCOCC3)n2)C(C(=O)NCCc2cccc(F)c2)c2cccnc2)cc1` (stereo not drawn) the IC50 was > 99.5 µM. `O=C(Cc1cc(Cl)cc(Nc2cccc(OC(F)(F)F)c2)c1)Nc1cncc2ccccc12` was tested, and the IC50 was 1.93 µM. In the case of `CC(C)(C)c1cnc(N(C(=O)c2ccco2)C(C(=O)NCCc2cccc(F)c2)c2cccnc2)s1` (stereo not drawn), the IC50 is reported as 3.94 µM. For `O=C(Cc1cc(Cl)cc(Nc2ccc([N+](=O)[O-])cc2Cl)c1)Nc1cncc2ccccc12`, the IC50 was 2.18 µM. With `Cn1cc(NC(=O)Cc2cccc(Cl)c2)c2ccccc2c1=O` the IC50 was > 99.5 µM. `O=C(Cc1cccc(Cl)c1)Nc1cncc2cc(F)cc(Cl)c12` was tested, and the IC50 was 0.718 µM. Work on `O=C1CC(C(=O)Nc2cncc3ccccc23)c2cc(Br)ccc2N1` (stereo not drawn) yielded an IC50 of 1.12 µM. `O=C1N(Cc2cccc(Cl)c2)CCN1c1nccc2n[nH]cc12` was tested, and the IC50 was 4.56 µM. `O=C(Cc1cc(Cl)cc(Nc2ccc(OC(F)(F)F)cc2Cl)c1)Nc1cncc2ccccc12` gave an IC50 of 1.9 µM. `COc1cc(COc2cc(Cl)cc(CC(=O)Nc3cnccc3C)c2)ccc1OC(F)F` was tested, and the IC50 was > 99.5 µM. For `Cc1cccc(C)c1NC(=O)[C@@H]1CN(C(=O)CCl)CCN1S(=O)(=O)c1ccsc1` (stereo in doubt), the IC50 was 1.64 µM. For `COC(=O)c1cc(/C=c2\s/c(=C(/C#N)C(=O)NC(C)C)n(-c3ccc(OC)c(F)c3)c2=O)oc1C`, the IC50 was > 99.5 µM. `COc1cc(Cl)cc(CC(=O)Nc2cnccc2C)c1` gave an IC50 of 36.8 µM. `Cn1nc(C(=O)N2CCOCC2)cc1C(=O)N(c1ccc(C(C)(C)C)cc1)C(C(=O)NCCc1cccc(F)c1)c1cccnc1` (stereo not drawn) was tested, and the IC50 was 92.1 µM. `CC1NC(=O)c2ccc(Cl)cc2C1C(=O)Nc1cncc2ccc(S(C)(=O)=O)cc12` (stereo not drawn) gave an IC50 of 1.99 µM. Work on `CC(C)(C)c1ccc(N(C(=O)c2cnc[nH]2)C(C(=O)NCCc2cccc(F)c2)c2cccnc2)cc1` (stereo not drawn) yielded an IC50 of 0.292 µM. For `O=C(Cn1nnc2ccccc21)N(Cc1cccc(Cl)c1)c1ccc(N2CCOCC2)cc1`, the IC50 was 3.7 µM. For `O=C(Cc1cccc(Cl)c1)Nc1[nH]nc2cc(F)ccc12`, the IC50 was > 99.5 µM. Compound `COc1cccc(CN2CCN(C(=O)c3cc(=O)[nH]c4ccccc34)CC2)c1` has an IC50 of 27.3 µM. `N#CC1(CS(=O)(=O)N2Cc3ccc(Cl)cc3C(C(=O)Nc3cncc4cc(F)ccc34)C2)CC1` (stereo not drawn) gave an IC50 of 0.222 µM. Compound `C=CC(=O)N(c1ccc(C(C)(C)C)cc1)C(C(=O)NCC)c1cccnc1` (stereo not drawn) has an IC50 of 45.5 µM. With `C#CCCCC(=O)N[C@@H](CC)C(=O)N[C@H](C(=O)N[C@@H](CC(C)C)C(=O)N[C@@H](CCC(=O)N(C)C)C(=O)COC(=O)c1c(C)cccc1C)C(C)(C)C` (stereo in doubt) the IC50 was 5.77 µM and 5.83 µM. Compound `Cc1nc(Cl)c(Nc2cc(Cl)cc(CC(=O)Nc3cncc4ccccc34)c2)c(Cl)n1` has an IC50 of 1.64 µM. Work on `O=C(Nc1cncc2ccccc12)C1CN(S(=O)(=O)CC2CC2(F)F)Cc2ccc(Cl)cc21` (stereo not drawn) yielded an IC50 of 0.159 µM. Work on `CNC(=O)CN1C[C@H](C(=O)Nc2cncc3cc(Cl)ccc23)c2cc(Cl)ccc2C1=O` (stereo in doubt) yielded an IC50 of 0.149 µM. Work on `N#Cc1ccc(Nc2cc(Cl)cc(CC(=O)Nc3cncc4ccccc34)c2)c(I)c1` yielded an IC50 of 1.62 µM. `O=C(CCl)N1CCCN(S(=O)(=O)c2cccs2)CC1` gave an IC50 of 7.24 µM. With `O=C(Nc1cncc2ccccc12)C12CCC(O1)c1cc(Cl)ccc12` (stereo not drawn) the IC50 was 2.39 µM. In the case of `CS(=O)(=O)N1CCc2ccc(Cl)cc2C1C(=O)Nc1cncc2ccccc12` (stereo not drawn), the IC50 is reported as 1.6 µM. Work on `COCCc1ccc(Cl)cc1CN1CCN(C(=O)CCl)CC1` yielded an IC50 of 2.2 µM. `O=C(Cc1cncc2ccccc12)Nc1cc(Cl)cc(OC2CCC(=O)N2)c1` (stereo not drawn) was tested, and the IC50 was 38.4 µM. In the case of `O=C(Cc1cc(Cl)cc(Nc2cc(Br)ccc2F)c1)Nc1cncc2ccccc12`, the IC50 is reported as 1.9 µM. For `O=C(Nc1cncc2ccccc12)[C@@H]1CN(S(=O)(=O)CC2CS(=O)(=O)C2)Cc2ccc(Cl)cc21` (stereo in doubt), the IC50 was 8.23 µM. With `CC(C)(C)c1ccc(N(C(=O)c2ccco2)C(C(=O)NCCc2cccc(F)c2)c2coc3ccccc23)cc1` (stereo not drawn) the IC50 was > 99.5 µM. In the case of `O=C1C(=O)N(Cc2ccc(Br)cc2)c2ccccc21`, the IC50 is reported as > 198 µM. `CC(C)CS(=O)(=O)N1Cc2ccc(Cl)cc2C(C(=O)Nc2cncc3ccc(C(C)(C)O)cc23)C1` (stereo not drawn) showed an IC50 of 1.22 µM. `Cn1ncc(C(=O)N(c2ccc(C(C)(C)C)cc2)C(C(=O)NCCc2cccc(F)c2)c2cccnc2)n1` (stereo not drawn) showed an IC50 of 17.6 µM. Work on `CS(=O)(=O)NCC1(C(=O)Nc2cncc3ccccc23)CCOc2ccc(Cl)cc21` (stereo not drawn) yielded an IC50 of 3.87 µM. With `O=C(Nc1ccc2nccnc2c1)c1csc2cncn12` the IC50 was > 99.5 µM. In the case of `CC(C)(C#N)CS(=O)(=O)N1Cc2ccc(Cl)cc2[C@H](C(=O)Nc2cncc3ccccc23)C1` (stereo in doubt), the IC50 is reported as 0.055 µM and 0.0969 µM and 0.141 µM. `CCS(=O)(=O)c1c(Cl)cccc1CNC(c1cccc(F)c1)C1CC1` (stereo not drawn) was tested, and the IC50 was > 99.5 µM. For `CCOC(=O)c1cc(-c2cc(Cl)cc(CC(=O)Nc3cnccc3C)c2)n[nH]1`, the IC50 was > 99.5 µM. In the case of `Cc1ccc(NC2=C(c3ccccc3)C(=O)N(Cc3cccnc3)C2=O)c(C)c1`, the IC50 is reported as > 99.5 µM. In the case of `O=C(NCCc1cccc(F)c1)C(c1cccnc1)N(C(=O)c1cocn1)C1CCCCC1` (stereo not drawn), the IC50 is reported as > 99.5 µM. In the case of `O=C(Cc1cc(Cl)cc(Nc2ccc(I)cn2)c1)Nc1cncc2ccccc12`, the IC50 is reported as 2.21 µM. `Nc1ccccc1-c1nc2ccccc2n1-c1cc(Cl)cc(CC(=O)Nc2cncc3ccccc23)c1` gave an IC50 of 5.09 µM. `COc1cc(Cl)cc2c1OCC[C@H]2C(=O)Nc1cncc2ccccc12` (stereo in doubt) was tested, and the IC50 was > 99.5 µM. Compound `O=C(Cc1cc(Cl)cc(N2CCN(c3cccc([N+](=O)[O-])c3)CC2)c1)Nc1cncc2ccccc12` has an IC50 of 2.87 µM. For `CC1(c2ccc(N(C(=O)c3cocn3)C(C(=O)NCCc3cccc(F)c3)c3cccnc3)cc2)OCCO1` (stereo not drawn), the IC50 was 83.1 µM. `O=C(c1cncc2ccccc12)N1CCN(c2cccc(Cl)c2)CC1` was tested, and the IC50 was 1.6 µM. In the case of `O=C(Nc1cncc2c1CCCC2)C1CNS(=O)(=O)c2ccc(Cl)cc21` (stereo not drawn), the IC50 is reported as 0.452 µM. `CC(C)(C)c1ccc(N(C(=O)c2cc(O)cc(=O)o2)C(C(=O)NCCc2cccc(F)c2)c2cccnc2)cc1` (stereo not drawn) was tested, and the IC50 was > 99.5 µM. In the case of `Cn1c(NCc2cn3ccnc3s2)nc2ccccc21`, the IC50 is reported as > 99.5 µM. In the case of `Cc1ccncc1NC(=O)Cc1cccc(Br)c1`, the IC50 is reported as 20.6 µM. For `O=C(Cn1cnc2ccccc21)Nc1cccc(Cl)c1`, the IC50 was 87.2 µM. Work on `N#Cc1ncn(CC(=O)Nc2ccc(Br)cc2Cl)n1` yielded an IC50 of 15.7 µM. With `CCC(c1ccncc1)N(C)C(=O)Cc1c[nH]c2ncccc12` (stereo not drawn) the IC50 was > 99.5 µM. For `CC(NC(=O)Cc1ccc(-n2cnnn2)cc1)(C(=O)Nc1cncc2ccccc12)c1ccc(Cl)c(Cl)c1` (stereo not drawn), the IC50 was 3.42 µM and 6.3 µM. In the case of `O=C(NCCCc1nc(=O)[nH][nH]1)C1(c2ccc(F)cc2F)CCC1`, the IC50 is reported as > 99.5 µM. `C=CC(=O)N(c1ccc(C(C)(C)C)cc1)C(C(=O)NCc1ccccc1)c1cccnc1` (stereo not drawn) gave an IC50 of 33.3 µM. `O=C(Cn1ccc(=O)[nH]c1=O)N1CCN(c2ccccc2O)CC1` was tested, and the IC50 was > 99.5 µM. `CN1Cc2c(Cl)cc(Cl)cc2[C@H](c2cccc(S(=O)(=O)NCCOCCOCCNC(=O)NCCCCNC(=O)NCCOCCOCCNS(=O)(=O)c3cccc([C@@H]4CN(C)Cc5c(Cl)cc(Cl)cc54)c3)c2)C1` (stereo in doubt) was tested, and the IC50 was > 99 µM. `C=CC(=O)N(c1ccc(C(C)(C)C)cc1)C(C(=O)NCCCSC)c1cccnc1` (stereo not drawn) was tested, and the IC50 was 25.5 µM. In the case of `CC(C(=O)Nc1cccc2nccnc12)n1cnc2c(N)ncnc21` (stereo not drawn), the IC50 is reported as > 99.5 µM. With `O=C(Cc1cc(Cl)cc(Nc2ccc(F)c(F)c2Br)c1)Nc1cncc2ccccc12` the IC50 was 1.94 µM. `O=C(CCl)N1CCN(S(=O)(=O)c2ccsc2)[C@H](C(=O)N2CCOCC2)C1` (stereo in doubt) was tested, and the IC50 was 2.88 µM. `O=C1OC(c2cccs2)=N/C1=C\c1ccc(N2CCOCC2)s1` was tested, and the IC50 was 0.696 µM. Compound `O=C(Cc1cc(Cl)cc(NCc2c(Cl)cccc2Cl)c1)Nc1cncc2ccccc12` has an IC50 of 2.71 µM. For `C=CC(=O)N(Cc1ccccc1Cl)C(C(=O)NC(C)(C)C)c1cncc2ccccc12` (stereo not drawn), the IC50 was > 99.5 µM. `O=C(NCc1ccccc1)[C@@H]1CN(C(=O)CCl)CCN1S(=O)(=O)c1ccsc1` (stereo in doubt) was tested, and the IC50 was 0.501 µM. `Cc1cc(C(=O)N2CCC(C3CCNC3)CC2)cc(S(=O)(=O)N(C)C)c1C` (stereo not drawn) was tested, and the IC50 was > 99.5 µM. In the case of `Cc1ccnc(NC(=O)C2CCOc3ccc(Cl)cc32)c1N` (stereo not drawn), the IC50 is reported as 71.6 µM. Work on `CCS(=O)(=O)N1Cc2ccc(Cl)cc2C(C(=O)Nc2cncc3ccccc23)C1` (stereo not drawn) yielded an IC50 of 0.242 µM. `Nc1cncc2c1CCCN2C(=O)Cc1cccc(Cl)c1` was tested, and the IC50 was 25.5 µM and 41.4 µM. Compound `O=C(Nc1cnc2ccccn12)C1CCNc2cc(Cl)c(Cl)cc21` (stereo not drawn) has an IC50 of 1.98 µM. `O=C1CCCN(S(=O)(=O)c2cccc(F)c2)CC1` was tested, and the IC50 was > 99.5 µM. For `Cn1c(CNCC2(C(=O)Nc3cncc4ccccc34)CCOc3ccc(Cl)cc32)nc2c1c(=O)[nH]c(=O)n2C` (stereo not drawn), the IC50 was > 99.5 µM. With `Cc1nc(C)c(S(=O)(=O)NCC2CCCC3CC23)s1` (stereo not drawn) the IC50 was > 99.5 µM. For `O=C(NCCc1nnc2n1CCC2)c1cc(O)nc2ccccc12`, the IC50 was > 99.5 µM. `O=C1NCC(C(=O)Nc2cnc3ccccn23)c2cc(Cl)ccc21` (stereo not drawn) was tested, and the IC50 was 5.93 µM. With `CS(=O)(=O)Cc1ccc(N(C(=O)c2cnc[nH]2)C(C(=O)NCCc2cccc(F)c2)c2cccnc2)cc1` (stereo not drawn) the IC50 was 41.1 µM. Compound `COC(=O)C(C(=O)Nc1cnccc1C)c1cccc(Cl)c1` (stereo not drawn) has an IC50 of 23.7 µM. For `CC(C)N1CCCC(N2CCN(c3ccc4nccnc4n3)CC2)C1=O` (stereo not drawn), the IC50 was > 99.5 µM. `O=C(Nc1cncc2c1CNCC2)C1CCOc2ccc(Cl)cc21` (stereo not drawn) gave an IC50 of 6.16 µM. In the case of `O=C(NCCc1cccc(F)c1)C(c1cccnc1)N(C(=O)c1cocn1)c1ccc(-n2ccnc2)cc1` (stereo not drawn), the IC50 is reported as > 99.5 µM. `CN(C)S(=O)(=O)N1CCc2ccc(Cl)cc2C1C(=O)Nc1cncc2ccccc12` (stereo not drawn) showed an IC50 of 1.97 µM. With `O=C(Cc1cc(Cl)cc(Nc2nc(-c3ccc(Cl)c(Cl)c3)cs2)c1)Nc1cncc2ccccc12` the IC50 was 2.46 µM. Compound `O=C(Cc1cccc(Cl)c1)Nn1cnc2ccccc21` has an IC50 of 8.3 µM. In the case of `CC(C)(C)c1ccc(N(C(=O)c2cocn2)C(C(=O)NCCc2cccc(F)c2)c2ccc[nH]c2=O)cc1` (stereo not drawn), the IC50 is reported as > 99.5 µM. In the case of `COc1cnc(C#N)nc1`, the IC50 is reported as > 99.5 µM. `N#CCS(=O)(=O)N1Cc2ccc(Cl)cc2C(C(=O)Nc2cncc3ccccc23)C1` (stereo not drawn) showed an IC50 of 0.33 µM. For `COC1(C(=O)Nc2cncc3cc(S(=O)(=O)N(C)C)ccc23)CCOc2ccc(Cl)cc21` (stereo not drawn), the IC50 was 0.458 µM. `CNC(=O)CN1CC(C(=O)Nc2cncc3cccc(Cl)c23)c2cc(Cl)ccc2C1=O` (stereo not drawn) was tested, and the IC50 was 0.0917 µM. With `N#CC1(CS(=O)(=O)NCc2ccc(Cl)cc2CC(=O)Nc2cncc3ccccc23)CC1` the IC50 was 0.133 µM. `O=C(Cc1cc(Cl)cc(NCCc2ccccc2C(F)(F)F)c1)Nc1cncc2ccccc12` showed an IC50 of 2.97 µM.
